Here are results for 2 compounds from US20070036809A1, “Tolerance-induced targeted antibody production” (priority 2003, published 2007).

One data set concerns BMRPA1 cells. Description: NNK exposure of BMRPA1 cells, morphology. To be noted: one 16 hour exposure. It counts as cell-based, rat. The method, then:
NNK Exposures: All preparations of the carcinogen-containing media were made in a separate laboratory within a NCI-designed and certified chemical hood using prescribed protective measures. NNK (American Health Foundation, N.Y.) was prepared as a stock solution of 10 mg NNK in PBS and added to FBS-free cRPMI to make final concentrations of 100, 50, 10, 5, and 1 μg/ml. BMRPA1 cells at passage 36 (p36) were seeded at 10^5/60 mm TCDs and allowed to grow for 6 d. At this time the medium was removed, and the cells were washed 2× with prewarmed (37° C.), FBS-free cRPMI before they were treated with FBS-free cRPMI (4 ml/TCD) containing the different concentrations of NNK. A 6th set of TCDs containing BMRPA1 cells was incubated in FBS-free cRPMI without NNK and was used as controls. The eight TCDs used for each of the six sets of different culture conditions were returned to the 37° C. and 95% air-5% CO2 incubator. After 16 h, the NNK-containing medium was removed from all TCDs and the cells were washed 3× with PBS followed by addition of fresh cRPMI-10% FBS (4 ml/TCD), and the incubation continued. Control cultures without NNK were processed in parallel. The cells were fed every 2 d by replacing ½ of the spent medium with fresh cRPMI-10% FBS. At full confluency the cells were collected from all TCDs, the cells in each group were pooled, and passaged at 2×10^4 into fresh TCDs.

Method for BMRPA1 antigens: Immunosubtractive Hyperimmunization Protocol (ISHIP): A mixture of live (10^6) and paraformaldehyde fixed and washed (10^6) cells was used for each immunization intraperitoneally (ip). Six female Balb/c mice (age˜12 wks) (Harlan-Sprague Dawley Labs, St. Louis) were used: two mice were injected 4× during standard immunizations with BMRPA1 cells. […] The other two immunosuppressed mice were injected weekly three more times with transformed BMRPA1.NNK cells, and a week later the mice were hyperimmunized with 5 additional injections of transformed BMRPA1.NNK cells in the 10 days preceding fusion (ISHIP mice). Sera were obtained from all mice within a week after the indicated number of immunizations.
Cell-Enzyme ImmunoAssay (Cell-EIA): BMRPA1 and BMRPA1.NNK cells were seeded in TCPs (96-wells) at 3×10^4/well with 0.1 mL cRPMI-10% FBS. The cells were allowed to adhere for 24 h, air dried, and stored under vacuum at RT. The cells were then rehydrated with PBS-1% BSA, followed by addition of either hybridoma supernatants or two fold serial dilutions of mouse sera to each well for 45 min at room temperature (RT). After washing with PBS-BSA, HRP-GαMIgG (1:100 in PBS-1% BSA) was added to each well for 45 min at RT. […] The substrate color development was assessed at OD490nm with a microplate reader (Bio-Rad 3550). […]

Turning to `CN(CCCC(=O)c1cccnc1)N=O` [NNK, 4-(methyl-nitrosamino)-1-(3-pyridyl)-1 butanone], the “Phenotypical changes of neoplastic transformation” value with BMRPA1 cells (1 μg/ml NNK) was “phenotypical changes characteristic of neoplastic transformation but at a slower rate, over several weeks”. For the same compound, the Cytotoxic changes entry is “observed considerably less” in the data set with BMRPA1 cells (5 and 1 μg NNK/mL); “cytotoxic changes consisting of poorly attached, degenerating, dying cells, and slowed cell growth” in the data set on BMRPA1 cells (larger concentrations of NNK (100, 50, 10 μg NNK/mL), serum free medium). For the same compound, in the data set on BMRPA1 cells (100, 50, 10 μg NNK/ml), the “Appearance of phenotypical changes indicative of neoplastic transformation” value was “within a week”.

Regarding `O=P1(N(CCCl)CCCl)NCCCO1` (stereo not drawn) [cyclophosphamide], the “Immunosuppression of antibody titer to BMRPA1 cells (Cell-EIA with sera)” value in the data set on BMRPA1 antigens (3 injections of BMRPA1 cells, then cyclophosphamide i.p. for 5 days, 60 μg/day/g body weight) is “strong immunosuppression”. The “Staining of rat pancreatic tissue by sera of BMRPA1 immunized, cyclophosphamide-treated mice” value with BMRPA1 antigens (immunohistochemistry on rat pancreas) is recorded as “virtually no staining”.
